Laboratory results as given in ChEMBL document CHEMBL5260833, “An overview of quinazolines: Pharmacological significance and recent developments” (Eur J Med Chem, 2018).
In brackets after ≈: the same amount, converted by molar mass.

How the values were obtained:
[1] = tested on: Rattus norvegicus; test: Inhibition of AII-induced pressor response in normotensive conscious rat administered intravenously; format: functional; conditions: route iv
[2] = tested on: Rattus norvegicus; test: Inhibition of AII-induced pressor response in normotensive conscious rat administered orally; format: functional; conditions: route po
[3] = tested on: Ovarian carcinoma cell; test: Anticancer activity against human Ovarian carcinoma cell assessed as cell growth inhibition; format: functional; conditions: read-out: ED50 (the source's name)
[4] = Anticancer activity against human Epidermoid carcinoma cell line assessed as cell growth inhibition; format: functional; conditions: read-out: ED50 (the source's name)
[5] = tested on: Vaccinia virus; test: Antiviral activity against Vaccinia virus infected in human MT4 cells measured after 5 days by MTT assay; format: functional, organism-based; conditions: Orthopoxvirus vaccinia, MT4, 120 h
[6] = tested on: Vaccinia virus; test: Antiviral activity against Vaccinia virus infected in human E6SM cells; format: functional; conditions: Orthopoxvirus vaccinia
[7] = tested on: Cytomegalovirus; test: Antiviral activity against Cytomegalovirus; conditions: Human betaherpesvirus 5
[8] = tested on: Mus musculus; test: Analgesic activity in acetic acid peritonitis induced mouse assessed as reduction in writhing at 10 mg/kg, po measured after 1 hrs by writhing test relative to control; format: functional
[9] = tested on: Mus musculus; test: Analgesic activity in phenylbenzoquinone induced mouse assessed as reduction in writhing at 10 mg/kg, po measured after 1 hrs by writhing test relative to control; format: functional
[10] = tested on: Rattus norvegicus; test: Antiinflammatory activity in rat at assessed as reduction in paw edema relative to control; format: functional
[11] = tested on: K562; test: Anticancer activity against human K562 cells assessed as cell growth inhibition; format: functional, cell-based
[12] = tested on: Rattus norvegicus; test: Inhibition of AII-induced hypertension in rat assessed as vasoconstrictor at 3 mg/kg, po measured after 2 hrs; format: functional
[13] = tested on: Mus musculus; test: Anticonvulsant activity in mouse at 100 mg/kg, po measured after 30 mins relative to control; format: functional; conditions: 0.5 h
[14] = tested on: Mus musculus; test: Sedative activity in mouse assessed as sleeping time at 100 mg/kg, ip; format: functional
[15] = tested on: Mus musculus; test: Sedative activity in mouse assessed as sleeping time at 30 mg/kg, ip; format: functional
[16] = tested on: Human immunodeficiency virus 1; test: Antiviral activity against HIV1; format: functional, organism-based
[17] = tested on: Human immunodeficiency virus 1; test: Therapeutic index, ratio of IC50 for antiviral activity against HIV1 to EC50 for antiviral activity against HIV1; format: functional
[18] = tested on: RXF 393; test: Anticancer activity against human RXF 393 cell assessed as cell growth inhibition measured after 24 hrs by SRB assay; format: functional
[19] = tested on: UO-31; test: Anticancer activity against human UO-31 cell assessed as cell growth inhibition measured after 24 hrs by SRB assay; format: functional
[20] = Anticancer activity against human CNS cell assessed as cell growth inhibition measured after 24 hrs by SRB assay; format: functional
[21] = tested on: Plasmodium falciparum; test: Antimalarial activity against plasmodium falciparum 3D7 assessed as bacterial growth inhibition; format: functional, organism-based
[22] = Cytotoxicity against human CEM/ADR5000 cells assessed as reduction in cell growth; format: toxicity, cell-based
[23] = tested on: Mus musculus; test: Anticonvulsant activity in PTZ induced mouse at 100 mg/kg, ip relative to control; format: functional
[24] = tested on: Mus musculus; test: Anticonvulsant activity in mouse at 100 mg/kg, ip by MES test relative to control; format: functional
[25] = target: Tubulin; test: Inhibition of tubulin polymerization (unknown origin) incubated for 15 mins followed by GTP addition and measured for 20 mins by spectrophotometry; format: protein-complex assay, Homo sapiens
[26] = tested on: MCF7; test: Cell cycle arrest in human MCF7 cells assessed as reduction in G2/M phase at 10 uM G2/M phase incubated for 24 hrs relative to control; format: functional
[27] = tested on: CA46; test: Cell cycle arrest in human CA46 cells assessed as reduction in G2/M phase at 10 uM incubated for 24 hrs relative to control; format: functional
[28] = tested on: MCF7; test: Anticancer activity against human MCF7 cell assessed as cell growth inhibition measured after 48 hrs by SRB assay; format: functional, cell-based; conditions: MCF7, 48 h

CCCCc1nc2ccc(C(C)C)cc2c(=O)n1Cc1ccc(-c2ccccc2S(=O)(=O)NC(=O)C2CC2)cc1
ED50 [1]: 0.25 mg/kg | ED50 [2]: 0.68 mg/kg

COc1cccc(-c2nc(O)c3cc(OC)ccc3n2)c1
EC50 [3]: < 5 µg/mL | EC50 [4]: < 5 µg/mL

CCc1nc(-n2c(-c3ccccc3)nc3ccc(Br)cc3c2=O)nc(N)c1-c1ccc(Cl)cc1
IC50 [5]: 0.424 µg/mL (≈ 0.796 µM) | MIC [6]: 1.92 µg/mL (≈ 3.6 µM)

Nc1nc2c(ncn2COC(CO)CO)c(=O)[nH]1 [GANCICLOVIR]
EC50 [7]: 2.6 µM

CCCCC1C(=O)N(c2ccccc2)N(c2ccccc2)C1=O [PHENYLBUTAZONE]
inhibition in vivo at 10 mg/kg [8]: 11% | inhibition in vivo at 10 mg/kg [9]: 25% | inhibition (INH) [10]: 38.9%

CCN(CC)C(=S)SCc1ccc2nc(C)nc(O)c2c1
IC50 [11]: 0.5 µM

CCCCc1nc2ccc([C@H]3OC[C@H]4[C@@H]3ON3[C@@H]4CCC3(C)C)cc2c(=O)n1Cc1ccc(-c2ccccc2-c2nn[nH]n2)cc1
Activity [12]: 70 mmHg

Cc1ccccc1-n1c(C)nc2ccccc2c1=O [METHAQUALONE]
Activity [13]: 20% | Time [14]: 119.7 min | Time [15]: 5.5 min

Cc1ccc2c(c1)/C(=N\NC(=O)CSc1nc3ccccc3c(=O)n1-c1ccccc1)C(=O)N2
EC50 [16]: 68.1 µM | IC50 [16]: > 100 µM | Ratio IC50/EC50 [17]: >1.47 | GI50 [18]: 1.66 µM | GI50 [19]: 0.209 µM | GI50 [20]: 0.209 µM

C[C@@H]1CC[C@H]2[C@@H](C)C(=O)O[C@@H]3O[C@@]4(C)CC[C@@H]1[C@]32OO4 [ARTEMISININ]
EC50 [21]: 0.0024 µM

C[C@H]1[C@H](OC(=O)CCC(=O)O)O[C@@H]2O[C@@]3(C)CC[C@H]4[C@H](C)CC[C@@H]1[C@@]24OO3 [ARTESUNATE]
EC50 [22]: 0.5 µM

CCn1c(SCC(=O)NN2C(=O)C(C)S/C2=N\c2ccccc2)nc2ccccc2c1=O (centres undefined)
Activity [23]: 66% | Activity [24]: 66%

O=c1c2cc(Cl)ccc2nc(/C=C/c2ccccc2)n1-c1ncccn1
IC50 [25]: 5.98 µM | inhibition at 10 µM [26]: 20% | inhibition at 10 µM [27]: 66% | IC50 [28]: 0.31 µM
